These results are taken from patent US5278152A, “2-formylbenzylphosphonic acid derivatives useful for the treatment of diseases caused by viruses” (priority 1989, dated 1994).

Molecules are shown by their SMILES. “And” between values parts separate entries of the source, which are not always exact repeats. Equal values may be shown once. Where a name gives a salt, the structure may show the parent alone. Read-outs that look alike come from different tables or passages of the source. Where only a bound is given, the exact number is not on record here.

For one data set, the system named is viruses. The note with it: literature; cited from earlier work.
Another data set has as its system influenza A2. It is filed as in vivo, NMRI mice. The note with it: twice daily over 2.5 days; for Number of surviving animals: groups of 5 mice.
The subject of the next data set is Herpes simplex Type 1. Kind of data set: Herpes simplex Type 1 infection of NMRI mice, survival. It is filed as in vivo. The note with it: twice daily over 2.5 days; for Surviving animals: groups of 5 mice. As for the experimental part:
Pathogen-free NMRI mice having a weight of about 15 g were infected intraperitoneally with Herpes simplex Type 1 and then treated intraperitoneally, orally or subcutaneously with the compounds mentioned in Table 1. The treatment was carried out twice daily over the course of 2.5 days, starting after infection. The result of treatment was determined on the basis of the course of the disease and the survival rate compared to the untreated infection controls. The controls received a water-solublemethylhydroxyethylcellulose (viscosity […], administered in 2% strength solution) instead of the compounds to be tested. The experiments were carried out using groups of 5 mice each per preparation.
The chemotherapeutic action of the compound A can be seen from Table 1.

Data set [1] has as its system myxoviruses (influenza A2). Put plainly: microbe, parasite or virus in culture. Type of data set: cell-based, influenza A2 virus in Hela and Vero cells. The note with it: read-out: MIC (minimum inhibitory concentration).
The next data set is described as follows: in vitro. The note with it: hela and vero cells.
The conditions of data set [2]: literature; cited from earlier work.

`O=P(O)(O)CP(=O)(O)O` [MDP, methylenediphosphonic acid]: the antiviral activity entry in the data set on viruses is recorded as “exhibit antiviral activity”.
As for `CCOP(=O)(Cc1ccccc1C=NNC(=O)c1cccnc1)OCC` [E, Diethyl 2-formylbenzylphosphonate nicotinic acid hydrazone], the Average survival time worked out at 8.0 days in the data set with influenza A2 (po, 0.25 mg/kg); 6.7 days in the data set on influenza A2 (po, 2.5 mg/kg); 6.0 days in the data set with influenza A2 (po, 25 mg/kg). The “Number of surviving animals” value with influenza A2 (po, 0.25 mg/kg) was 4; with influenza A2 (po, 2.5 mg/kg), 3; with influenza A2 (po, 25 mg/kg), 3.
In the data set on influenza A2 (po, 80 mg/kg), `NC12CC3CC(CC(C3)C1)C2` [Amantadine, reference compound] showed an Average survival time of 8.0 days. Moreover, the “Number of surviving animals” value was 5 and 4 with influenza A2 (po, 80 mg/kg, 80 mg/kg); 5 in the data set on influenza A2 (sc, 80 mg/kg).
Regarding `CCOP(=O)(Cc1ccccc1C=NNC(N)=S)OCC` [D, Diethyl 2-formylbenzylphosphonate thiosemicarbazone], the Average survival time with influenza A2 (po, 0.25 mg/kg) is reported as 8.0 days; in the data set on influenza A2 (po, 2.5 mg/kg), 7.0 days; with influenza A2 (po, 25 mg/kg), 7.3 days. Further, the “Number of surviving animals” value was found to be 4 in the data set on influenza A2 (po, 0.25 mg/kg); 1 in the data set on influenza A2 (po, 2.5 mg/kg); 2 with influenza A2 (po, 25 mg/kg).
Consider `CCOP(=O)(Cc1ccccc1C=O)OCC` [A, diethyl 2-formylbenzylphosphonate], for which the Average survival time with Herpes simplex Type 1 (ip, 3 mg/kg) worked out at 8.0 days; with Herpes simplex Type 1 (ip, 10 mg/kg), 9.0 days; in the data set on Herpes simplex Type 1 (ip, 30 mg/kg), 8.5 days; in the data set with Herpes simplex Type 1 (po, 2.5 mg/kg) it was 8.0 days; in the data set on Herpes simplex Type 1 (po, 250 mg/kg), 8.0 days; with Herpes simplex Type 1 (sc, 2.5 mg/kg), 9.0 days. In addition, the Average survival time in the data set on Herpes simplex Type 1 (sc, 25 mg/kg) turned out to be 7.2 days; with Herpes simplex Type 1 (sc, 250 mg/kg), 8.4 days; in the data set on influenza A2 (po, 2.5 mg/kg), 9.0 days; in the data set with influenza A2 (po, 3 mg/kg), 8.0 days; in the data set with influenza A2 (po, 10 mg/kg) it was 7.0 days; with influenza A2 (po, 25 mg/kg) it was 6.3 days. Moreover, the Average survival time in the data set on influenza A2 (po, 30 mg/kg) is 7.3 days; with influenza A2 (sc, 2.5 mg/kg), 6.7 days; in the data set on influenza A2 (sc, 25 mg/kg), 7.0 days. The Surviving animals in the data set on Herpes simplex Type 1 (ip, 3 mg/kg) was 0; with Herpes simplex Type 1 (ip, 10 mg/kg), 4; with Herpes simplex Type 1 (ip, 30 mg/kg) it was 3; in the data set with Herpes simplex Type 1 (po, 2.5 mg/kg), 4; in the data set on Herpes simplex Type 1 (po, 25 mg/kg), 5; in the data set with Herpes simplex Type 1 (po, 250 mg/kg), 4. Besides, the Surviving animals in the data set on Herpes simplex Type 1 (sc, 2.5 mg/kg) worked out at 2; in the data set on Herpes simplex Type 1 (sc, 25 mg/kg), 0; with Herpes simplex Type 1 (sc, 250 mg/kg), 0. Further, the “Number of surviving animals” value in the data set with influenza A2 (po, 2.5 mg/kg) came out at 4; in the data set on influenza A2 (po, 3 mg/kg), 4; in the data set with influenza A2 (po, 10 mg/kg), 4; in the data set on influenza A2 (po, 25 mg/kg), 2; with influenza A2 (po, 30 mg/kg), 2; in the data set on influenza A2 (sc, 2.5 mg/kg), 2. Further, in the data set on influenza A2 (sc, 25 mg/kg), the “Number of surviving animals” value stood at 3.
As for `CCOP(=O)(O)Cc1ccccc1C=O` [C, monoethyl 2-formylbenzylphosphonate triethylammonium salt], the Average survival time in the data set on Herpes simplex Type 1 (po, 3 mg/kg) was 9.0 days; in the data set on Herpes simplex Type 1 (po, 10 mg/kg), 8.0 days; in the data set with Herpes simplex Type 1 (po, 30 mg/kg), 8.3 days; in the data set with Herpes simplex Type 1 (sc, 3 mg/kg), 8.5 days; with Herpes simplex Type 1 (sc, 10 mg/kg), 8.0 days; in the data set on Herpes simplex Type 1 (sc, 30 mg/kg), 10.0 days. The Average survival time in the data set with influenza A2 (po, 2.5 mg/kg) is 6.0 days; in the data set with influenza A2 (sc, 25 mg/kg), 7.5 days. Further, the Surviving animals with Herpes simplex Type 1 (po, 3 mg/kg) stood at 4; in the data set with Herpes simplex Type 1 (po, 10 mg/kg) it was 3; with Herpes simplex Type 1 (po, 30 mg/kg) it was 1; with Herpes simplex Type 1 (sc, 3 mg/kg), 1; in the data set with Herpes simplex Type 1 (sc, 10 mg/kg) it was 3; in the data set on Herpes simplex Type 1 (sc, 30 mg/kg), 4. Besides, the MIC in data set [1] stood at 44.4 µg/mL. For the same compound, the “Number of surviving animals” value in the data set on influenza A2 (po, 0.25 mg/kg) worked out at 5; with influenza A2 (po, 2.5 mg/kg), 2; in the data set with influenza A2 (po, 25 mg/kg), 5; in the data set with influenza A2 (sc, 0.25 mg/kg), 5; with influenza A2 (sc, 2.5 mg/kg), 5; in the data set on influenza A2 (sc, 25 mg/kg), 3. This compound also displayed an MNTC in “in vitro” of over 400 µg/mL.
On to `O=Cc1ccccc1CP(=O)(O)O` [B, 2-formylbenzylphosphonic acid di(triethylammonium) salt], for which the Average survival time turned out to be 7.0 days in the data set on Herpes simplex Type 1 (po, 3 mg/kg); 8.3 days with Herpes simplex Type 1 (po, 10 mg/kg); 6.0 days with Herpes simplex Type 1 (po, 30 mg/kg); 7.8 days in the data set with Herpes simplex Type 1 (sc, 3 mg/kg); 7.0 days in the data set with Herpes simplex Type 1 (sc, 10 mg/kg); 6.5 days with Herpes simplex Type 1 (sc, 30 mg/kg). For the same compound, the Average survival time worked out at 8.5 days with influenza A2 (po, 1.5 mg/kg); 7.0 days in the data set on influenza A2 (po, 150 mg/kg); 8.5 days in the data set with influenza A2 (sc, 1.5 mg/kg); 8.0 days in the data set with influenza A2 (sc, 15 mg/kg). Further, the Surviving animals in the data set on Herpes simplex Type 1 (po, 3 mg/kg) was 3; in the data set on Herpes simplex Type 1 (po, 10 mg/kg) it was 2; in the data set on Herpes simplex Type 1 (po, 30 mg/kg) it was 3; with Herpes simplex Type 1 (sc, 3 mg/kg), 2; with Herpes simplex Type 1 (sc, 10 mg/kg), 3; in the data set with Herpes simplex Type 1 (sc, 30 mg/kg) it was 3. Besides, the MIC in data set [1] was found to be 4.94 µg/mL. The “Number of surviving animals” value is reported as 3 in the data set with influenza A2 (po, 1.5 mg/kg); 5 in the data set with influenza A2 (po, 15 mg/kg); 3 with influenza A2 (po, 150 mg/kg); 1 with influenza A2 (sc, 1.5 mg/kg); 4 with influenza A2 (sc, 15 mg/kg). The compound also yielded an MNTC in the data set “in vitro” of over 400 µg/mL.
In the case of `CCOP(=O)(Cc1ccccc1C1O[C@H](c2ccccc2)[C@H](C)N1C)OCC` (single isomer, unassigned) [F, Diethyl 2-(3,4-dimethyl-5-phenyloxazolidin-2-yl)benzylphosphonate], the Average survival time is 6.5 days with influenza A2 (po, 0.25 mg/kg); 6.5 days in the data set with influenza A2 (po, 2.5 mg/kg); 7.0 days with influenza A2 (po, 25 mg/kg). Besides, the “Number of surviving animals” value with influenza A2 (po, 0.25 mg/kg) was determined as 3; with influenza A2 (po, 2.5 mg/kg), 3; in the data set on influenza A2 (po, 25 mg/kg), 2.
Consider `O=C(O)P(=O)(O)O` [PFA, phosphonoformic acid], for which the antiviral activity entry in the data set on viruses is listed as “wide antiviral spectrum”. Moreover, the toxic side effects result in data set [2] was “some toxic side effects”.
Take `O=C(O)CP(=O)(O)O` [PAA, phosphonoacetic acid]: the antiviral activity entry with viruses is reported as “exhibit antiviral activity”.
